Assay results from publication PMC7020476, “New Insights into the Type II Toxins from the Sea Anemone Heteractis crispa” (Toxins, 2020).
Entries after “also recorded” stand apart in the source; their conditions may differ. Read-outs that look alike come from different tables or passages of the source. Bridges are numbered along the chain shown (N, C = ends). Roman numbers before positions name the chains, in order. Where no end group is shown, it is not given here.

What was measured:
rNaV1.2 = target: T1, rNaV1.2 (Rattus norvegicus, UniProt P04775); test: Two-electrode voltage-clamp of NaV1.2 expressed in Xenopus laevis oocytes; assay type: cell-based; settings: for EC50: read-out: half-maximal effective concentration (EC50), NaV1.2
T1 construct: expressed in transfected cells; host or cells: Xenopus laevis oocytes injected with cRNA
T1 sequence (P04775 whole entry): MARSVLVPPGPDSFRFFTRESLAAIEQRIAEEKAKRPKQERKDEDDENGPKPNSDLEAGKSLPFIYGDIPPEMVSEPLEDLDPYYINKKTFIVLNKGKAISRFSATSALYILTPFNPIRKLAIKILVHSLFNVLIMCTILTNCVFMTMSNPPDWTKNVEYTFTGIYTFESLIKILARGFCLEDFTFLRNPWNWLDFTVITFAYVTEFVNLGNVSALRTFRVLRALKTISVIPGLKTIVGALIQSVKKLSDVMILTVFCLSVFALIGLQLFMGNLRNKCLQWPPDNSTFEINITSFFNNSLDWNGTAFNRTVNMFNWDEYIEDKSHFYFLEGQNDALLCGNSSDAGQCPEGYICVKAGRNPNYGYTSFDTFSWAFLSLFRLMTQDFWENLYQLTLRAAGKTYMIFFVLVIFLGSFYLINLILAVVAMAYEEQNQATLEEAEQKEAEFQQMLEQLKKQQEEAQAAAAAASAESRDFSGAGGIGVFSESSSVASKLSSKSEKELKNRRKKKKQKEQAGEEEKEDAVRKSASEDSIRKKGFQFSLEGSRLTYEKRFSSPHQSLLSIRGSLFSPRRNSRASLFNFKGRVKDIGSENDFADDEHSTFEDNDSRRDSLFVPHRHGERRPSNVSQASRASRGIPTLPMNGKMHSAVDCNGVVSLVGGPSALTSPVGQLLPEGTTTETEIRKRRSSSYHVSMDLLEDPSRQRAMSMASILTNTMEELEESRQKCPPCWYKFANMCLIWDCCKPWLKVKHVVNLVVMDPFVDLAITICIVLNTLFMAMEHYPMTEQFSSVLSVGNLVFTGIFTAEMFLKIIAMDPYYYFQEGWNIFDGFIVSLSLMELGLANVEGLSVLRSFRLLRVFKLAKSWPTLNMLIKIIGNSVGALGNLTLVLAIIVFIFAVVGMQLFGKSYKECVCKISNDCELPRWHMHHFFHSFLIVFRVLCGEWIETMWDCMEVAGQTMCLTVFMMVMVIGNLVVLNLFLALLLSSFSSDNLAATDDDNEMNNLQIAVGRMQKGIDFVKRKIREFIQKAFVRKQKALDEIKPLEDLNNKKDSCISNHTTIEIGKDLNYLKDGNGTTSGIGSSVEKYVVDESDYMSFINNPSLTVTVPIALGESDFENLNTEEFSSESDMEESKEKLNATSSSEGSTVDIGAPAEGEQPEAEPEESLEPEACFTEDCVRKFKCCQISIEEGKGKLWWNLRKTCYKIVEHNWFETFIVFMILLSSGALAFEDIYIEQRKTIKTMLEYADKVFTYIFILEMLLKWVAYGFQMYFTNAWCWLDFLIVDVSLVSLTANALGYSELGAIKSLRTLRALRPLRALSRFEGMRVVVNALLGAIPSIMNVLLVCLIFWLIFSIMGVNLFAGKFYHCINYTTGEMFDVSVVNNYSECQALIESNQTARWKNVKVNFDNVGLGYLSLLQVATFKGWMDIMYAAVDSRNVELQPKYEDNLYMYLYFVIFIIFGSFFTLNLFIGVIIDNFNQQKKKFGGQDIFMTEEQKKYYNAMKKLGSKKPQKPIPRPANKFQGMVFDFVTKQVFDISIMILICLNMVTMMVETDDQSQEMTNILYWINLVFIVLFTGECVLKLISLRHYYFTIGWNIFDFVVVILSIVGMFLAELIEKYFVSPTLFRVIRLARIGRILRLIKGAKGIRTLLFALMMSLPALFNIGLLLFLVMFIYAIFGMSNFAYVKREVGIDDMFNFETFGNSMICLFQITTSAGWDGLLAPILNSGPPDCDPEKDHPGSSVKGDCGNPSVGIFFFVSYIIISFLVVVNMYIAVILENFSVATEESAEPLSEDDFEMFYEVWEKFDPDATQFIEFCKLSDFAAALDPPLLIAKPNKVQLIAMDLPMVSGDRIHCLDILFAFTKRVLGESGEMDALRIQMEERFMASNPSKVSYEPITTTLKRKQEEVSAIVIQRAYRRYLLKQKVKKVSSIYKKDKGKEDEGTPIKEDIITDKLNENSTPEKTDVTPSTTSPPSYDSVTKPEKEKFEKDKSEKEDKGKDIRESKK
Description: (§1) For the expression of NaV channels (hNaV1.1, rNaV1.2, rNaV1.3, rNaV1.4, hNaV1.5, mNaV1.6, rNaV1.8, the invertebrate channels BgNaV1.1, VdNaV1, and the auxiliary subunits rβ1, hβ1, and TipE) in Xenopus oocytes, the linearized plasmids were transcribed using the T7 or SP6 mMessage-mMachine Transcription Kit (Thermo Fisher Scientific, Waltham, MA, USA). The harvesting of stage V–VI oocytes from anesthetized female X. laevis frogs was previously described with a protocol adjustment in which the frogs were anesthetized by placement in 0.1% tricaine (amino benzoic acid ethyl ester; Millipore Sigma, Burlington, MA, USA) solution. Oocytes were injected with 50 nL of cRNA at a concentration of 1 ng/nL using a microinjector (Drummond Scientific Company, Broomall, PA, USA). The oocytes were incubated in a solution containing (mM) the following: NaCl, 96; KCl, 2; CaCl2, 1.8; MgCl2, 2; and HEPES, 5 (pH 7.4). This solution was supplemented with 50 mg/L gentamicin sulfate.
(§2) Two-electrode voltage-clamp recordings were performed at room temperature (18–22 °C) using a GeneClamp 500 amplifier (Molecular Devices, San Jose, CA, USA) controlled by a pClamp data acquisition system (Axon Instruments, Union City, CA, USA). Whole-cell currents from oocytes were recorded 1–4 d after mRNA injection. Bath solution composition was (mM) as follows: NaCl, 96; KCl, 2; CaCl2, 1.8; MgCl2, 2; and HEPES, 5 (pH 7.4). Voltage and current electrodes were filled with 3 M KCl. The resistances of both electrodes were kept between 0.8 and 1.5 MΩ. The elicited currents were filtered at 1 kHz and sampled at 20 kHz by using a 4-pole low-pass Bessel filter. Leak subtraction was performed using a -P/4 protocol.
(§3) For the electrophysiological analysis of toxins, a number of protocols were applied from a holding potential of −90 mV with a start-to-start frequency of 0.2 Hz. Na^+ current traces were evoked by 100-ms depolarizations to Vmax (the voltage corresponding to maximal Na^+ current in control conditions). The current–voltage relationships were determined by 50-ms step depolarizations between −90 and 70 mV, using 5 mV increments. The Na^+ conductance (gNa) was calculated from the currents according to Ohm’s law: gNa = INa/(V − Vrev), where INa represents the Na^+ current peak amplitude at a given test potential V, and Vrev is the reversal potential. The values of gNa were plotted as a function of voltage and fitted using the Boltzmann function: gNa/gmax = [1 + (exp(Vg − V)/k)] −1, where gmax represents maximal gNa, Vg is the voltage corresponding to half-maximal conductance, and k is the slope factor. Toxin–induced effects on the steady–state inactivation were investigated by using a standard two-step protocol. In this protocol, 100 ms conditioning 5 mV step prepulses ranging from −90 to 70 mV were followed by a 50-ms test pulse to −30 or −10 mV. Data were normalized to the maximal Na^+ current amplitude, plotted against prepulse potential, and fitted by using the Boltzmann function: INa/Imax = {(1 − C)/(1 + exp[(V − Vh)/k)]} + C, where Imax is the maximal INa, Vh is the voltage corresponding to half-maximal inactivation, V is the test voltage, k is the slope factor, and C is a constant representing a non-inactivating persistent fraction (close to 0 in control). […] I30ms/Ipeak was measured at the same test voltage after addition of the toxin. […]

rNaV1.3 = test: Two-electrode voltage-clamp of NaV1.3 expressed in Xenopus laevis oocytes; assay type: cell-based, rat; settings: 10 μM toxin
Description: as §1, with “Oocytes were injected with 50 nL of cRNA at a concentration of 1 ng/nL using a microinjector (Drummond Scientific Company, Broomall, PA, USA). The oocytes were incubated in a solution containing (mM) the following: NaCl, 96; KCl, 2; CaCl2, 1.8; MgCl2, 2; and HEPES, 5 (pH 7.4). This solution was supplemented with 50 mg/L gentamicin sulfate.” left out
Two-electrode voltage-clamp recordings were performed at room temperature (18–22 °C) using a GeneClamp 500 amplifier (Molecular Devices, San Jose, CA, USA) controlled by a pClamp data acquisition system (Axon Instruments, Union City, CA, USA). Whole-cell currents from oocytes were recorded 1–4 d after mRNA injection. […]
For the electrophysiological analysis of toxins, a number of protocols were applied from a holding potential of −90 mV with a start-to-start frequency of 0.2 Hz. […] The current–voltage relationships were determined by 50-ms step depolarizations between −90 and 70 mV, using 5 mV increments. […] I30ms/Ipeak was measured at the same test voltage after addition of the toxin. […]

mNaV1.6 = target: T2, mNaV1.6 (Mus musculus, UniProt Q9WTU3); test: Two-electrode voltage-clamp of NaV1.6 expressed in Xenopus laevis oocytes; assay type: cell-based; settings: for EC50: amplitude of toxin-induced effect at 30 ms (I30ms), Hill fit, Xenopus oocytes, means ± sem, n ≥ 5, read-out: half-maximal effective concentration (EC50), NaV1.6
T2 construct: expressed in transfected cells; host or cells: Xenopus laevis oocytes injected with cRNA
Description: as §1, §2
as §3, with “protocol.” for “protocol. In this protocol, 100 ms conditioning 5 mV step prepulses ranging from −90 to 70 mV were followed by a 50-ms test pulse to −30 or −10 mV. Data were normalized to the maximal Na^+ current amplitude, plotted against prepulse potential, and fitted by using the Boltzmann function: INa/Imax = {(1 − C)/(1 + exp[(V − Vh)/k)]} + C, where Imax is the maximal INa, Vh is the voltage corresponding to half-maximal inactivation, V is the test voltage, k is the slope factor, and C is a constant representing a non-inactivating persistent fraction (close to 0 in control).”

BgNaV1 = BgNaV1 (Blattella germanica, UniProt O01306); test: Two-electrode voltage-clamp of BgNaV1 expressed in Xenopus laevis oocytes; assay type: cell-based, insect; settings: for EC50: amplitude of toxin-induced effect at 30 ms (I30ms), Hill fit, Xenopus oocytes, means ± sem, n ≥ 5, read-out: half-maximal effective concentration (EC50), BgNaV1
BgNaV1, sequence (O01306 1-2031): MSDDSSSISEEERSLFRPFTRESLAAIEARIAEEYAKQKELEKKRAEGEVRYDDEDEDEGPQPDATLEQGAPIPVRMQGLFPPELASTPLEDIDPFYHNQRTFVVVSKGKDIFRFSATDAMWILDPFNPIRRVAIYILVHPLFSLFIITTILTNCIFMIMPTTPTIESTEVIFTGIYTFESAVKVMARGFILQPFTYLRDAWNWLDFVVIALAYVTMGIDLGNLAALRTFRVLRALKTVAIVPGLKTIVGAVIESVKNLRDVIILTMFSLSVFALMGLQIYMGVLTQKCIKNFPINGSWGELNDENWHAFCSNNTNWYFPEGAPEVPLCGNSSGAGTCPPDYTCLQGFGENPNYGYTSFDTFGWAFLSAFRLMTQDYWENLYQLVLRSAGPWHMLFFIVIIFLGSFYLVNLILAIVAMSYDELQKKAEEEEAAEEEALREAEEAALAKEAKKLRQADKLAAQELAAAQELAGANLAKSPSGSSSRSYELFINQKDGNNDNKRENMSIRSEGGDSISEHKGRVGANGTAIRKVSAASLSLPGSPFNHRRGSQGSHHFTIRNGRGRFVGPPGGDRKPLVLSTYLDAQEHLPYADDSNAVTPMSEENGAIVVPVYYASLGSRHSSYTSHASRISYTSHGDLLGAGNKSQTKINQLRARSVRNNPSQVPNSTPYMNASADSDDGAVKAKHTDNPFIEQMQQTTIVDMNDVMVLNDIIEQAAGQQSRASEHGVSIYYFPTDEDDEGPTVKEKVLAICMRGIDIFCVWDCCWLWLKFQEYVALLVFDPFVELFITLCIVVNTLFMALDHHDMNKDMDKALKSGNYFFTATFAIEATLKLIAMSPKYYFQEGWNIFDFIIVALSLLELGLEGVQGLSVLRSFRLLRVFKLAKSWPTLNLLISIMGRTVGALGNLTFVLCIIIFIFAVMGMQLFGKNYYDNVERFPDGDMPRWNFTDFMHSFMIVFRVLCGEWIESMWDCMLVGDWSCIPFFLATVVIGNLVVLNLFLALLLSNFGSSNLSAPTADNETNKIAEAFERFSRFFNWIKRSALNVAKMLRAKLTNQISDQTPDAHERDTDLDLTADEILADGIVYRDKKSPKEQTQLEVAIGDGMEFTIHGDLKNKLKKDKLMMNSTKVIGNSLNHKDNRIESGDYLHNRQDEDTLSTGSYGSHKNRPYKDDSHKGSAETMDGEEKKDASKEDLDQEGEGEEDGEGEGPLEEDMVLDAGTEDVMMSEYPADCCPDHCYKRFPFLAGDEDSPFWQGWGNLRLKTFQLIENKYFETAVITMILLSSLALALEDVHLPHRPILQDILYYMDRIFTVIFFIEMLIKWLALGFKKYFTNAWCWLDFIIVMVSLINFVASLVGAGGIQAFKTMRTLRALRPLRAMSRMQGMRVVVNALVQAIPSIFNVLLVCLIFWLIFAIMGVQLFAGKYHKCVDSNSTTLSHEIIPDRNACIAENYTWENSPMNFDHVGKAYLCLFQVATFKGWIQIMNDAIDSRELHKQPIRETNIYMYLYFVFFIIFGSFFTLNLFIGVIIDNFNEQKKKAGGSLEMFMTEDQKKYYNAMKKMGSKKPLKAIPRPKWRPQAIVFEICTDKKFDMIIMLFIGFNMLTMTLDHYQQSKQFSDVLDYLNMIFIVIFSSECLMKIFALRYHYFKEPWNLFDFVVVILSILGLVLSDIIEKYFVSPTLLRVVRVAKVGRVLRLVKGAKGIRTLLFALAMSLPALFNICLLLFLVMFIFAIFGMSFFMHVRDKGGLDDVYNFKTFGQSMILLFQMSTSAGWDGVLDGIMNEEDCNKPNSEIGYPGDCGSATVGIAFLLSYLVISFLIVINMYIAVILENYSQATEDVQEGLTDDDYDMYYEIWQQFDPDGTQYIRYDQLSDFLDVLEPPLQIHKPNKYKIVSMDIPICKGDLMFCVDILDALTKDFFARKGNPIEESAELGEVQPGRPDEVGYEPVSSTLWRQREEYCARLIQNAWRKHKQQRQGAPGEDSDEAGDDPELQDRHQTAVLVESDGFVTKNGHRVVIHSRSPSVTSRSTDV
Description: as §1, §2
as §3, with “protocol.” for “protocol. In this protocol, 100 ms conditioning 5 mV step prepulses ranging from −90 to 70 mV were followed by a 50-ms test pulse to −30 or −10 mV. Data were normalized to the maximal Na^+ current amplitude, plotted against prepulse potential, and fitted by using the Boltzmann function: INa/Imax = {(1 − C)/(1 + exp[(V − Vh)/k)]} + C, where Imax is the maximal INa, Vh is the voltage corresponding to half-maximal inactivation, V is the test voltage, k is the slope factor, and C is a constant representing a non-inactivating persistent fraction (close to 0 in control).”

[1] = test system: NaV channels (NaV1.1–NaV1.6, NaV1.8, BgNaV1, VdNaV1); test: Electrophysiological screening on nine NaV subtypes (overall statements); assay type: cell-based; settings: for modulation of NaV channels (in words): 10 μM toxin, Xenopus oocytes; for phyla selectivity (in words): mammalian vs. insect/arachnid, 10 μM
Description: as §1, §2
as §3, with “protocol.” for “protocol. In this protocol, 100 ms conditioning 5 mV step prepulses ranging from −90 to 70 mV were followed by a 50-ms test pulse to −30 or −10 mV. Data were normalized to the maximal Na^+ current amplitude, plotted against prepulse potential, and fitted by using the Boltzmann function: INa/Imax = {(1 − C)/(1 + exp[(V − Vh)/k)]} + C, where Imax is the maximal INa, Vh is the voltage corresponding to half-maximal inactivation, V is the test voltage, k is the slope factor, and C is a constant representing a non-inactivating persistent fraction (close to 0 in control).”

mice [2] = test: Toxicity in mice; assay type: in vivo, adult male CD-1 mice; settings: intraperitoneal, six animals per sample, 24 hours
Procedure: The care and use of animals were performed in an agreement with the requirements of local and international legislation as well as of the Directive 2010/63/EU for animal experiments.
Adult male CD-1 mice weighing 20–22 g were kept at room temperature with a 12-h light/dark cycle and with ad libitum access to food and water. Each animal was used only once and was euthanized in the CO2 chamber immediately after completion of the experiment. Animal procedures were approved by the Animal Care and Use Committee of the PIBOC FEB RAS.
The peptides (0.15–300 μg) were dissolved in 100 μL of sterile saline (0.9% NaCl) and injected intraperitoneally. Six animals were used per sample. To assess peptide toxicity, the maximum non-toxic dose was determined as an amount (mg) of the tested peptide per kg of the mouse weight, at which there was no observed toxic or adverse effect within 24 hours.

[3] = Secondary structure content by CD spectroscopy; assay type: physicochemical; settings: water, 20 °C; for Unordered / α-Helices αD / α-Helices αR / α-Helices αtot: CONTIN; for α-Helices αD: distorted; for α-Helices αR: regular; for α-Helices αtot: sum
Procedure: CD spectra were measured in the range from 320 to 190 nm with a Chirascan-plus spectropolarimeter (Applied Photophysics, Leatherhead, UK). The instrument was calibrated with 10-camphorsulfonic acid ammonium salt, and a ratio of 2:1 was found between the positive CD band at 290 nm and the negative CD band at 192 nm. The measurements were carried out in bidistilled water at 20 °C using 0.1- and 1-cm path length cells in amide and aromatic regions, respectively. In the amide region (190–240 nm) of the CD spectrum, molar ellipticity [θ]λ (deg cm^2 dmol^−1) was calculated as [θ]λ = θobs × MRW/10 × C × L, where θobs is the observed ellipticity in degrees, MRW is the mean amino acid residue weight of 110 Da, L is the path length (cm), and C is the protein concentration (g/mL). In the aromatic region (240–320 nm) of the CD spectrum, results were expressed as molar ellipticity (the average molecular masses of RpII, RTX-III, and RTX-VI are 5378, 5287, and 5240 Da, respectively). The secondary structure contents were determined according to the method of Provencher and Glöckner, using their CONTIN program.

mice [4] = settings: cited from earlier work
Description: The only difference observed within our electrophysiological experiments that may underlie this phenomenon is a different activity of both toxins on NaV1.2 and NaV1.3 subtypes (Figure 5, Table 2). Even though tetrodotoxin (TTX)-sensitive brain-type sodium channel isoforms NaV1.1–NaV1.3 and NaV1.6 are the main channels e ...

[5] = amplitude of toxin-induced effect at 30 ms (I30ms), Hill fit, Xenopus oocytes, means ± sem, n ≥ 5

Substance	effect on NaV1.2 current (in words) (rNaV1.2; Xenopus oocytes)	EC50 (rNaV1.2; [5])	relative activity on NaV1.2 (in words) (rNaV1.2; compared to δ-SHTX-Hcr1f (Figure 6, Table 3))	effect on NaV1.3 current (in words) (rNaV1.3)	EC50 (mNaV1.6)	relative potency on NaV1.6 (in words) (mNaV1.6; compared with RTX-III)	EC50 (BgNaV1)	relative potency on BgNaV1 (in words) (BgNaV1; compared with RTX-III)	modulation of NaV channels (in words) [1]	phyla selectivity (in words) [1]	LD50 (mice [2]; mice)	α-helices (in words) [3]	Unordered [3]	α-Helices αD [3]	α-Helices αR [3]	α-Helices αtot [3]	half-maximal effective concentration (EC50), NaV1.2 (rNaV1.2; [5])	LD50 (mice [4]; ref [10])	toxicity in mice (in words) (mice [2]; CD-1 mice)	LD50 (mice [4]; ref [8])
I: TAPLTGYVDLGYCNEGWEKCASYYSPIAECCRKKK-NH2 / II: GNCKCDDEGPYV-OH (disulfide I:13-I:31, I:20-II:5, I:30-II:3) [RTX-VI]	modulated another subtype of the CNS channels, NaV1.2; also recorded: enhanced current through NaV1.2	121 ± 19.3 nM	lower activity on the NaV1.2 subtype compared to δ-SHTX-Hcr1f	abolished its effect on the NaV1.3 current	282 ± 7 nM	more potent inhibitor of both NaV1.6 and BgNaV1 channels than RTX-III	761 ± 25.6 nM	more potent inhibitor of both NaV1.6 and BgNaV1 channels than RTX-III	modulate insect, arachnid (BgNaV1, VdNaV1), and mammalian CNS NaV channels (NaV1.1–NaV1.3, NaV1.6) but not skeletal muscle (NaV1.4), cardiac (NaV1.5), or PNS (NaV1.8) channels; also recorded: did not affect currents of skeletal muscle NaV1.4, cardiac NaV1.5, and PNS NaV1.8 channels	not to be phyla-selective; also recorded: non-phyla-selective	> 10 mg/kg	practically absent	38.3 percentage	0.3 percentage	0.0 percentage	0.3 percentage	–	–	–	–
H-GNCKCDDEGPYVRTAPLTGYVDLGYCNEGWEKCASYYSPIAECCRKKK-NH2 (disulfide 3-43, 5-33, 26-44) [RTX-III]	–	–	–	exhibited substantial activating effects on NaV1.3; also recorded: acted similarly on NaV1.3	382 ± 5.8 nM	–	978 ± 62.3 nM	–	modulate insect, arachnid (BgNaV1, VdNaV1), and mammalian CNS NaV channels (NaV1.1–NaV1.3, NaV1.6) but not skeletal muscle (NaV1.4), cardiac (NaV1.5), or PNS (NaV1.8) channels; also recorded: did not affect currents of skeletal muscle NaV1.4, cardiac NaV1.5, and PNS NaV1.8 channels	not to be phyla-selective; also recorded: non-phyla-selective	–	practically absent	40.1 percentage	0.4 percentage	0.1 percentage	0.5 percentage	Not active	0.0025 mg/kg	–	–
ASCKCDDDGPDVRSATFTGTVDFWNCNEGWEKCTAVYTPVASCCRKKK-NH2 (disulfide 3-43, 5-33, 26-44) [δ-SHTX-Hcr1f]	–	79.5 ± 4.3 nM	–	–	183 ± 8.2 nM	–	226 ± 12.3 nM	–	–	–	–	–	–	–	–	–	–	–	consistent with the previously reported data for RpII	4.2 mg/kg
